Laboratory results taken from patent publication US10787446B2 (GENENTECH, INC., priority 2015, dated 2020).

Target: T1, hNav1.7 and the β1 subunit (Homo sapiens, UniProt Q15858)
T1 construct: expressed in transfected cells
Assay: Tritiated compound competitive binding to membranes from cells heterologously expressing hNav1.7 and the β1 subunit (LBA)
Conditions: competition with 100 pM [3H]compound, 18 h, room temperature; IC50 by 4 parameter logistic model
Protocol: Example 235 Tritiated Compound Binding to Membranes Isolated from Cells that Heterologously Express hNav1.7 and the β1 Subunit
Preparation of membranes containing recombinantly expressed sodium channels: Frozen recombinant cell pellets were thawed on ice and diluted to 4 times the cell pellet weight with ice cold 50 mM Tris HCl, pH 7.4 buffer. The cell suspensions were homogenized on ice using a motorized glass dounce homogeniser. Homogenates were further diluted 8.4 times with ice cold 50 mM Tris HCl, pH 7.4 buffer and then centrifuged at 200×g at 4° C. for 15 min. The supernatants were collected and centrifuged at 10000×g at 4° C. for 50 min. The pellets were then re-suspended in 100 mM NaCl, 20 mM Tris HCl, pH 7.4 buffer containing 1% v/v protease inhibitors (Calbiochem) and re-homogenized on ice. The homogenized membranes were then processed through a syringe equipped with a 26 gauge needle. Protein concentrations were determined by Bradford Assay and the membranes were stored at −80° C.
Radioligand Binding Studies:
Saturation experiments. A competitive NaV1.7 inhibitor having a methyl group was tritiated. Three tritiums were incorporated in place of methyl hydrogens to generate [^3H]compound. Binding of this radioligand was performed in 5 mL borosilicate glass test tubes at room temperature. Binding was initiated by adding membranes to increasing concentrations of [^3H]compound in 100 mM NaCl, 20 mM Tris HCl, pH 7.4 buffer containing 0.01% w/v bovine serum albumin (BSA) for 18 h. […] After 18 h, the reactants were filtered through GF/C glass fiber filters presoaked in 0.5% w/v polyethylene imine. […] [^3H]compound bound to filters was quantified by liquid scintillation counting.
Competitive Binding Experiments:
Binding reactions were performed in 96-well polypropylene plates at room temperature for 18 h. In 360 μL, membranes were incubated with 100 pM [^3H]compound and increasing concentrations of Test Compound. […] Reactions were transferred and filtered through 96-well glass fiber/C filter plates presoaked with 0.5% polyethylene imine. The filtered reactions were washed 5 times with 200 μL ice cold buffer containing 0.25% BSA. Bound radioactivity was determined by liquid scintillation counting.
Data Analysis: For saturation experiments, non-specific binding was subtracted from total binding to provide specific binding and these values were recalculated in terms of pmol ligand bound per mg protein. Saturation curves were constructed and dissociation constants were calculated using the single site ligand binding model: Beq=(Bmax*X)/(X+Kd), where Beq is the amount of ligand bound at equilibrium, Bmax is the maximum receptor density, Kd is the dissociation constant for the ligand, and X is the free ligand concentration. For competition studies percent inhibition was determined and IC50 values were calculated using a 4 parameter logistic model (% inhibition=(A+((B−A)/(1+((x/C)^D)))) using XLfit, where A and B are the maximal and minimum inhibition respectively, C is the IC50 concentration and D is the (Hill) slope.

T1 sequence (Q15858 whole entry): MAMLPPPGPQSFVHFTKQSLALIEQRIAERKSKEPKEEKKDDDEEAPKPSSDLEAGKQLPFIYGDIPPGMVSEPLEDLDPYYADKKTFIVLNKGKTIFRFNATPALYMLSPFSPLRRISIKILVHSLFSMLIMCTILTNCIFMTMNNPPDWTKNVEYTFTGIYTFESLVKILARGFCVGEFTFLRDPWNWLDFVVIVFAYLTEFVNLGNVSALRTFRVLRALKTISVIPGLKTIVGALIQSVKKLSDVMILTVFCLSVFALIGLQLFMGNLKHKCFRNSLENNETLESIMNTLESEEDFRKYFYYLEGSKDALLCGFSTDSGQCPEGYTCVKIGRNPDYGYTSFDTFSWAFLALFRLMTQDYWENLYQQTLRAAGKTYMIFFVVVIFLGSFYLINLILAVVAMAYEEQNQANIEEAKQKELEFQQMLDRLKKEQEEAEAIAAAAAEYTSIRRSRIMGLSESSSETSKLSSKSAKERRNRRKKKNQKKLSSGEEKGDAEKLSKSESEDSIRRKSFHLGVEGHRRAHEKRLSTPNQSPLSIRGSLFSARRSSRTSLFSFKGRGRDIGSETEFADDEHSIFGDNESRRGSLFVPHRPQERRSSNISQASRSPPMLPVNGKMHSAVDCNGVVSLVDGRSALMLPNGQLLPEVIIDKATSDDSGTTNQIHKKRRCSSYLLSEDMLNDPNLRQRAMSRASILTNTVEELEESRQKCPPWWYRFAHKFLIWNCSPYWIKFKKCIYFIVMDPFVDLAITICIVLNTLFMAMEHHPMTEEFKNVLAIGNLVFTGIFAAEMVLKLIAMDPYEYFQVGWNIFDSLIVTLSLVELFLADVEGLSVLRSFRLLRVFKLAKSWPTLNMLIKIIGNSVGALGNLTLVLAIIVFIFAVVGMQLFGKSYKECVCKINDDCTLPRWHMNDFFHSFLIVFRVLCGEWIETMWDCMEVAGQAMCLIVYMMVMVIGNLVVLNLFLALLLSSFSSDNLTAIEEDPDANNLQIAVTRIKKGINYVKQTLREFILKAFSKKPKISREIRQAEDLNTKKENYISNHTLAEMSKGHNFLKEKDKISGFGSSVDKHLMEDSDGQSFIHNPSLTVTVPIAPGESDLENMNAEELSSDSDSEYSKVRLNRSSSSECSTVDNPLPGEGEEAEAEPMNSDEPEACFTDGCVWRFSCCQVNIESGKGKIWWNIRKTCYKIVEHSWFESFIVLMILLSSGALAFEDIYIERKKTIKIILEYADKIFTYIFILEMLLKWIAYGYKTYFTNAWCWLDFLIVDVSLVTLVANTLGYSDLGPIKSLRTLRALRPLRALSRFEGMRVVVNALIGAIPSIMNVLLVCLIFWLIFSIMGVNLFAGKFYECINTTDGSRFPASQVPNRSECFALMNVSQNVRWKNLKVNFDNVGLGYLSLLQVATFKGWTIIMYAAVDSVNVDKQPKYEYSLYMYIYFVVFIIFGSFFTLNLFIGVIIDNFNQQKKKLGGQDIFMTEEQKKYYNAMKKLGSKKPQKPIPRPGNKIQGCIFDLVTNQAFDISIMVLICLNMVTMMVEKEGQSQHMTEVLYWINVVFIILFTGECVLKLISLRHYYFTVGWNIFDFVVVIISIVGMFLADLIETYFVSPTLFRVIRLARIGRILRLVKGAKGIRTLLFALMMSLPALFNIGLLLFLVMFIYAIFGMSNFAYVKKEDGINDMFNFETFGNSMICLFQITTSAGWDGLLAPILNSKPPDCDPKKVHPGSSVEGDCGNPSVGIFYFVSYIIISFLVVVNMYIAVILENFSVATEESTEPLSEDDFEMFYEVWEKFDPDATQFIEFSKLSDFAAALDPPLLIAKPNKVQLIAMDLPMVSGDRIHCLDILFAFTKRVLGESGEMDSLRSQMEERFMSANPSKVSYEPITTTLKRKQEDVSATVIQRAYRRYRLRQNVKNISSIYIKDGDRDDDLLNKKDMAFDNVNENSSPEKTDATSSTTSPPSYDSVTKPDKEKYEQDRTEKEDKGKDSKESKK
T1 sequence (Q07699 19-218 partner): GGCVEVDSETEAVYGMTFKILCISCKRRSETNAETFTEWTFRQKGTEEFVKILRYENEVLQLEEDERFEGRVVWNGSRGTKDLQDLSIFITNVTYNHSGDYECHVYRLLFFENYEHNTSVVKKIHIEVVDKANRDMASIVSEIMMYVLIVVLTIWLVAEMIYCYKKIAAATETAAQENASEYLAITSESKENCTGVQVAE

Row | Compound | Nav1.7 (LBA) [µM]
1 | O=S(=O)(Nc1nccs1)c1cc2c(cc1F)[C@H](N1CC[C@@H](C(F)(F)F)C[C@H]1c1ccn[nH]1)CCO2 [Example 210, (R)-4-((2S,4R)-2-(1H-pyrazol-5-yl)-4-(trifluoromethyl)piperidin-1-yl)-6-fluoro-N-(thiazol-2-yl)chromane-7-sulfonamide] | 0.0375
2 | C[C@H](c1cc(F)c(S(=O)(=O)Nc2ncns2)cc1F)N1CCCC[C@H]1c1ccccc1 (single isomer, unassigned) [Example 18] | 1.38
3 | O=S(=O)(Nc1ncns1)c1cc(F)c(CN2CC[C@@H](O)C[C@H]2c2ccccc2)cc1F [Example 114, 2,5-Difluoro-4-(((2S,4R)-4-hydroxy-2-phenylpiperidin-1-yl)methyl)-N-(1,2,4-thiadiazol-5-yl)benzenesulfonamide] | 9.65
4 | CC(C)[C@@H]1CCN([C@@H]2CCOc3cc(S(=O)(=O)Nc4ncns4)ccc32)[C@H](c2ccccc2)C1 (single isomer, unassigned) [Example 128] | 0.469
5 | O=S(=O)(Nc1ncns1)c1ccc2c(c1)OCC[C@@H]2N1CCCC[C@H]1c1ccc(F)cc1 (single isomer, unassigned) [Example 76] | 0.0179
6 | O=S(=O)(Nc1ncns1)c1ccc2c(c1)OCC[C@@H]2N1CC[C@@H](C(F)F)C[C@H]1c1ccc(F)cc1 [Example 186, (S)-4-((2S,4R)-4-(difluoromethyl)-2-(4-fluorophenyl)piperidin-1-yl)-N-(1,2,4-thiadiazol-5-yl)chroman-7-sulfonamide] | 0.00214
7 | O=S(=O)(Nc1ncns1)c1cc2c(cc1F)[C@@H](N1CCCC[C@@H]1c1ccc(F)cc1)CCO2 (racemic) [Example 86, (±)-(S)-6-fluoro-4-((R)-2-(4-fluorophenyl)piperidin-1-yl)-N-(1,2,4-thiadiazol-5-yl)chromane-7-sulfonamide] | 0.00496
8 | O=S(=O)(Nc1ncns1)c1cc(F)c(CN2CC[C@H](O)C[C@@H]2c2ccccc2)cc1F (single isomer, unassigned) [Example 113] | 8.59
9 | O=S(=O)(Nc1ncns1)c1cc(F)c(CN2CC[C@H](F)C[C@@H]2c2ccccc2)cc1F (single isomer, unassigned) [Example 29] | 0.157
10 | O=S(=O)(Nc1ncns1)c1ccc2c(c1)CCC2N1CCCCC1c1ccccc1 (single isomer, unassigned) [Example 66, 1-(2-phenylpiperidin-1-yl)-N-(1,2,4-thiadiazol-5-yl)-2,3-dihydro-1H-indene-5-sulfonamide] | 0.597
11 | CS(=O)(=O)[C@H]1CCN([C@H]2CCOc3cc(S(=O)(=O)Nc4ncns4)ccc32)[C@@H](c2ccc(F)cc2)C1 [Example 163, (S)-4-((2R,4S)-2-(4-fluorophenyl)-4-(methylsulfonyl)piperidin-1-yl)-N-(1,2,4-thiadiazol-5-yl)chroman-7-sulfonamide] | 0.0223
12 | O=S(=O)(Nc1ncns1)c1ccc2c(c1)OCC[C@H]2N1CCC(F)(F)C[C@H]1c1ccc(F)cc1 (single isomer, unassigned) [Example 133] | 0.0467
13 | O=S(=O)(Nc1ncns1)c1cc(F)c(CN2CC[C@H](OC(F)(F)F)C[C@@H]2c2ccccc2)cc1F (single isomer, unassigned) [Example 35] | 0.0786
14 | O=S(=O)(Nc1ncns1)c1cc(F)c(CN2CCC3(CC3)C[C@@H]2c2ccccc2)cc1F (single isomer, unassigned) [Example 109] | 1.57
15 | N#C[C@H]1CCN([C@@H]2CCOc3cc(S(=O)(=O)Nc4ncns4)ccc32)[C@@H](c2ccc(F)cc2)C1 [Example 180, (R)-4-((2R,4S)-4-cyano-2-(4-fluorophenyl)piperidin-1-yl)-N-(1,2,4-thiadiazol-5-yl)chroman-7-sulfonamide] | 0.158
16 | O=S(=O)(Nc1ncns1)c1ccc(CN2CCCC[C@H]2c2ccccc2)c(Cl)c1 [Example 65, (S)-3-chloro-4-((2-phenylpiperidin-1-yl)methyl)-N-(1,2,4-thiadiazol-5-yl)benzenesulfonamide] | 5.51

Row | Compound | Nav1.7 (LBA) [µM]
17 | O=S(=O)(Nc1ncns1)c1ccc2c(c1)OCC[C@H]2N1CC[C@H](C(F)(F)F)C[C@@H]1c1ccn[nH]1 (single isomer, unassigned) [Example 146] | 0.308
18 | O=S(=O)(Nc1ncns1)c1ccc2c(c1)OCC[C@@H]2N1CCc2ccccc2[C@H]1c1ccccc1 (single isomer, unassigned) [Example 80] | 0.142
19 | O=S(=O)(Nc1nccs1)c1cc2c(cc1F)[C@@H](N1CCCC[C@H]1c1ccccc1)CCO2 (single isomer, unassigned) [Example 90] | 0.00862
20 | O=S(=O)(Nc1ncns1)c1ccc2c(c1)OCC[C@@H]2N1CC[C@@H](C(F)(F)F)C[C@@H]1c1ccc(F)c(F)c1 [Example 107, (S)-4-((2R,4R)-2-(3,4-difluorophenyl)-4-(trifluoromethyl)piperidin-1-yl)-N-(1,2,4-thiadiazol-5-yl)chroman-7-sulfonamide] | 2.0
21 | O=S(=O)(Nc1nccs1)c1cc2c(cc1F)[C@H](N1CC[C@H](C(F)(F)F)C[C@@H]1c1ccn[nH]1)CCO2 [Example 213, (R)-4-((2R,4S)-2-(1H-pyrazol-5-yl)-4-(trifluoromethyl)piperidin-1-yl)-6-fluoro-N-(thiazol-2-yl)chromane-7-sulfonamide] | 0.0274
22 | O=S(=O)(Nc1ncns1)c1ccc2c(c1)OCC[C@H]2N1CCC(F)(F)C[C@@H]1c1ccccc1 (single isomer, unassigned) [Example 141] | 0.486
23 | Cn1nccc1[C@@H]1CCCCN1[C@H]1CCOc2cc(S(=O)(=O)Nc3ncns3)ccc21 [Example 41, (S)-4-((S)-2-(1-methyl-1H-pyrazol-5-yl)piperidin-1-yl)-N-(1,2,4-thiadiazol-5-yl)chromane-7-sulfonamide] | 0.00609
24 | C[C@@H]1CCN(Cc2cc(F)c(S(=O)(=O)Nc3ncns3)cc2F)[C@H](c2ccccc2)C1 (single isomer, unassigned) [Example 6] | 0.17
25 | C[C@@H]1CCCN(Cc2cc(F)c(S(=O)(=O)Nc3ncns3)cc2F)[C@@H]1c1ccccc1 (single isomer, unassigned) [Example 23] | 0.366
26 | O=S(=O)(Nc1ncns1)c1ccc2c(c1)OCC[C@H]2N1CCCC[C@@H]1c1ccc(F)cc1 (single isomer, unassigned) [Example 79] | 0.0186
27 | O=S(=O)(Nc1ncns1)c1ccc2c(c1)OCC[C@@H]2N1CCN(CC(F)(F)F)C[C@H]1c1ccc(F)cc1 [Example 219, (S)-4-((R)-2-(4-fluorophenyl)-4-(2,2,2-trifluoroethyl)piperazin-1-yl)-N-(1,2,4-thiadiazol-5-yl)chromane-7-sulfonamide] | 0.00778
28 | CC(C)[C@H]1CCN([C@H]2CCOc3cc(S(=O)(=O)Nc4ncns4)ccc32)[C@@H](c2ccccc2)C1 (single isomer, unassigned) [Example 129] | 0.0168
29 | O=S(=O)(Nc1ncns1)c1cc(F)c(CN2CC[C@@H](F)C[C@H]2c2ccccc2)cc1F (single isomer, unassigned) [Example 28] | 5.98
30 | O=S(=O)(Nc1ncns1)c1cc2c(cc1F)C(N1CCC(C(F)(F)F)CC1c1ccc(F)cc1)CCO2 (racemic) [Example 88, 6-fluoro-4-(cis-2-(4-fluorophenyl)-4-(trifluoromethyl)piperidin-1-yl)-N-(1,2,4-thiadiazol-5-yl)chromane-7-sulfonamide] | 0.00168
31 | O=S(=O)(Nc1ncns1)c1ccc2c(c1)OCC[C@H]2N1CC[C@@H](OC(F)(F)F)C[C@H]1c1ccc(F)cc1 [Example 173, (R)-4-((2S,4R)-2-(4-fluorophenyl)-4-(trifluoromethoxy)piperidin-1-yl)-N-(1,2,4-thiadiazol-5-yl)chroman-7-sulfonamide] | 0.000895
32 | CCN1CCN([C@H]2CCOc3cc(S(=O)(=O)Nc4ncns4)ccc32)[C@H](c2ccc(F)cc2)C1 [Example 224, (S)-4-((R)-4-ethyl-2-(4-fluorophenyl)piperazin-1-yl)-N-(1,2,4-thiadiazol-5-yl)chromane-7-sulfonamide] | 0.174
